# Values quoted from earlier work, collected in patent US20260193295A1, “CILAGICIN COMPOUNDS AND METHODS OF USE THEREOF” (priority 2022, published 2026).
# Like-named read-outs stand apart in the source and are kept apart here.
# Tested on: vancomycin-resistant Enterococci clinical isolates
# Settings: cited from earlier work
# [1] = Enterococci clinical isolate code 781
# [2] = Enterococci clinical isolate code 782
# [3] = Enterococci clinical isolate code 783
# [4] = Enterococci clinical isolate code 784
# [5] = Enterococci clinical isolate code 785
# [6] = Enterococci clinical isolate code 786
# [7] = Enterococci clinical isolate code 787
# [8] = Enterococci clinical isolate code 788
# [9] = Enterococci clinical isolate code 789
# [10] = Enterococci clinical isolate code 790
# [11] = Enterococci clinical isolate code 791
# [12] = Enterococci clinical isolate code 792
# [13] = Enterococci clinical isolate code 793
# [14] = Enterococci clinical isolate code 794
# [15] = Enterococci clinical isolate code 795
# [16] = Enterococci clinical isolate code 796
# [17] = Enterococci clinical isolate code 797
# [18] = Enterococci clinical isolate code 798
# [19] = Enterococci clinical isolate code 799
# [20] = Enterococci clinical isolate code 800
# [21] = Enterococci clinical isolate code 801
# [22] = Enterococci clinical isolate code 802
# [23] = Enterococci clinical isolate code 803
# [24] = Enterococci clinical isolate code 804
# [25] = Enterococci clinical isolate code 805
# [26] = Enterococci clinical isolate code 806
# [27] = Enterococci clinical isolate code 807
# [28] = Enterococci clinical isolate code 808
# [29] = Enterococci clinical isolate code 809
# [30] = Enterococci clinical isolate code 810
Compound,MIC [1] [µg/mL],MIC [2] [µg/mL],MIC [3] [µg/mL],MIC [4] [µg/mL],MIC [5] [µg/mL],MIC [6] [µg/mL],MIC [7] [µg/mL],MIC [8] [µg/mL],MIC [9] [µg/mL],MIC [10] [µg/mL],MIC [11] [µg/mL],MIC [12] [µg/mL],MIC [13] [µg/mL],MIC [14] [µg/mL],MIC [15] [µg/mL],MIC [16] [µg/mL],MIC [17] [µg/mL],MIC [18] [µg/mL],MIC [19] [µg/mL],MIC [20] [µg/mL],other results
CO[C@H]1/C=C/O[C@@]2(C)Oc3c(C)c(O)c4c(O)c(c(/C=N/N5CCN(C)CC5)c(O)c4c3C2=O)NC(=O)/C(C)=C\C=C\[C@H](C)[C@H](O)[C@@H](C)[C@@H](O)[C@@H](C)[C@H](OC(C)=O)[C@@H]1C [Rifampin],1,1,>4,≤0.25,2,2,≤0.25,>4,>4,>4,1,4,4,4,2,>4,4,≤0.25,2,2,MIC [21]: 0.5 µg/mL; MIC [22]: ≤0.25 µg/mL; MIC [23]: >4 µg/mL; MIC [24]: 2 µg/mL; MIC [25]: 2 µg/mL; MIC [26]: >4 µg/mL; MIC [27]: >4 µg/mL; MIC [28]: >4 µg/mL; MIC [29]: 2 µg/mL; MIC [30]: 2 µg/mL
[H]/N=C(/N)N[C@H]1[C@H](O)[C@@H](O)[C@H](O[C@@H]2O[C@@H](C)[C@](O)(C=O)[C@H]2O[C@@H]2O[C@@H](CO)[C@H](O)[C@@H](O)[C@@H]2NC)[C@@H](N/C(N)=N\[H])[C@@H]1O [Streptomycin],≤1000,>1000,>1000,≤1000,>1000,≤1000,>1000,≤1000,>1000,>1000,≤1000,≤1000,≤1000,>1000,>1000,≤1000,≤1000,≤1000,>1000,≤1000,MIC [21]: ≤1000 µg/mL; MIC [22]: >1000 µg/mL; MIC [23]: >1000 µg/mL; MIC [24]: >1000 µg/mL; MIC [25]: ≤1000 µg/mL; MIC [26]: ≤1000 µg/mL; MIC [27]: >1000 µg/mL; MIC [28]: ≤1000 µg/mL; MIC [29]: >1000 µg/mL; MIC [30]: >1000 µg/mL
CN[C@H](CC(C)C)C(=O)N[C@H]1C(=O)N[C@@H](CC(N)=O)C(=O)N[C@H]2C(=O)N[C@H]3C(=O)N[C@H](C(=O)N[C@H](C(=O)O)c4cc(O)cc(O)c4-c4cc3ccc4O)[C@H](O)c3ccc(c(Cl)c3)Oc3cc2cc(c3O[C@@H]2O[C@H](CO)[C@@H](O)[C@H](O)[C@H]2O[C@H]2C[C@](C)(N)[C@H](O)[C@H](C)O2)Oc2ccc(cc2Cl)[C@H]1O [Vancomycin],>64,32,64,4,2,32,>64,2,>64,>64,0.5,>64,1,>64,32,8,2,2,>64,64,MIC [21]: 4 µg/mL; MIC [22]: >64 µg/mL; MIC [23]: >64 µg/mL; MIC [24]: 16 µg/mL; MIC [25]: 1 µg/mL; MIC [26]: 0.5 µg/mL; MIC [27]: >64 µg/mL; MIC [28]: 4 µg/mL; MIC [29]: >64 µg/mL; MIC [30]: 1 µg/mL
Gentamicin,≤500,>500,>500,≤500,>500,>500,≤500,≤500,>500,≤500,≤500,>500,≤500,>500,>500,≤500,≤500,≤500,>500,>500,MIC [21]: >500 µg/mL; MIC [22]: >500 µg/mL; MIC [23]: >500 µg/mL; MIC [24]: >500 µg/mL; MIC [25]: ≤500 µg/mL; MIC [26]: ≤500 µg/mL; MIC [27]: ≤500 µg/mL; MIC [28]: ≤500 µg/mL; MIC [29]: ≤500 µg/mL; MIC [30]: ≤500 µg/mL
